Experiments:
subject = assay: Net gain in lines of visual acuity at 45 centimeters after binocular instillation of aceclidine enantiomer solutions (Example 1, prophetic); type: in vivo; conditions: for Net gain in lines of visual acuity versus baseline, monocularly: first figure of cell; for Net gain in lines of visual acuity versus baseline, binocularly: second figure of cell
Protocol: Solutions containing scalemic mixtures of or enantiomerically pure aceclidine in 1.50% w/v polysorbate 80, 1.2% w/v hydroxypropylmethyl cellulose, 0.1% w/v disodium ethylenediaminetetraacetic acid, 0.1% w/v sorbate in 0.9% w/v sodium chloride buffered saline at a pH of 6.5 were instilled, binocularly in a subject. The subject's visual acuity at 45 centimeters was then tested both monocularly and binocularly. Net gain in lines of visual acuity versus baseline monocularly/binocularly are shown in Table 1 below at 1, 2 and 5 hours post-instillation.

accommodation = conditions: cited from earlier work

Row | Compound | Net gain in lines of visual acuity versus baseline, monocularly (subject; 1 hour post-instillation) | Net gain in lines of visual acuity versus baseline, binocularly (subject; 1 hour post-instillation) | Net gain in lines of visual acuity versus baseline, monocularly (subject; 2 hours post-instillation) [lines] | Net gain in lines of visual acuity versus baseline, binocularly (subject; 2 hours post-instillation) [lines] | Net gain in lines of visual acuity versus baseline, monocularly (subject; 5 hours post-instillation) [lines] | Net gain in lines of visual acuity versus baseline, binocularly (subject; 5 hours post-instillation) [lines] | induced accommodation documented in presbyopes (accommodation; 2% concentration, presbyopes) [D] | induced accommodation (accommodation; as little as, with a range of variability) [D]
1 | CC(=O)OC1CN2CCC1CC2 (centres unmarked) [50/50, aceclidine] | 2.00 lines | 3.00 lines | 1.50 | 2.50 | 1.00 | 1.50 |  | 
2 | CC(=O)OC1CN2CCC1CC2 (centres unmarked) [100/0, aceclidine] | 2.00 lines | 3.50 lines | 1.75 | 3.00 | 1.50 | 2.50 |  | 
3 | CC[C@@H]1C(=O)OC[C@@H]1Cc1cncn1C [Pilocarpine, pilocarpine] |  |  |  |  |  |  | ≥ −5 | 
4 | CC(=O)OC1CN2CCC1CC2 (centres unmarked) [aceclidine] |  |  |  |  |  |  |  | −0.37
5 | aceclidine [25/75] | 1.50/1.50 lines | 1.50/1.50 lines | 0.75 | 1.25 | 0.50 | 1.00 |  | 
6 | aceclidine [62.5/22.5] | 1.40 lines | 3.20 lines | 1.70 | 2.70 | 1.20 | 1.60 |  | 
7 | aceclidine [75/25] | 1.50 lines | 2.50 lines | 1.20 | 2.80 | 0.70 | 2.00 |  | 
8 | aceclidine [87.5/12.5] | 1.75 lines | 3.25 lines | 1.40 | 2.90 | 0.90 | 2.25 |  | 

From patent publication US20200061036A1, “ACECLIDINE ISOMERS AND SCALEMIC MIXTURES THEREOF FOR THE TREATMENT OF PRESBYOPIA” (Presbyopia Therapies, LLC, priority 2018, published 2020)
